The subject of the assay is PMA-stimulated PMNs. Nature of the assay: Nuclear decondensation (nuclear area) assay. Format: cell-based, human. As to conditions: CRISPP 1 nM, SCR 1 nM, Sivelestat 200 nM; PMA 20 nM, 2 hours; vs PMA alone. The method, then:
Using techniques modified from Papayannopoulos et al., J Cell Biol, 2010, 191: 677-691, nuclear area assays were used for PMA-stimulated PMNs as a surrogate for NET formation. PMNs were stimulated with PMA (20 nM) for 2 hours and then visualized via live cell imaging with a cell permeable DNA dye. Images from 5 randomly selected high power fields were captured and the nuclear area of all PMNs on each visual field was quantitated using IMAGEJ software. Nuclear areas were compared for PMNs stimulated with PMA with PMNs pre-incubated with CRISPP (1 nM), SCR (1 nM), or the NE inhibitor Sivelestat (200 nM). […] Next, immunocytochemical experiments designed to see whether CRISPP is taken up by human PMNs were performed. The CRISPP-F and SCR-F peptides and FLAG-tag specific primary antibodies were used to assess cellular location. […] CRISPP can inhibit nuclear chromatin decondensation, which is consistent with the selective inhibition of NET formation by CRISPP and nNIF. This process may involve inhibition of NE activity.
PMNs were isolated and resuspended to 2×10^6 cells/mL in M-199 media. […] 5 randomly selected high power visual fields per sample were captured via confocal microscopy and analyzed for nuclear area using the cell-permeable, fluorescent DNA dye SYTO Green. The nuclear pixel areas of >100 individual cells per high power field were determined using IMAGE-J software (NIH).

For “Cancer-Associated SCM-Recognition, Immune Defense Suppression, and Serine Protease Protection Peptide [CRISPP, nNIF-related peptide (nNRP)]”, the “Nuclear area of PMA-stimulated PMNs” value is given as “significant decrease in nuclear area”.

Source of the values: patent US10232023B2, “Methods for treatment of and prophylaxis against inflammatory disorders” (THE UNIVERSITY OF UTAH RESEARCH FOUNDATION, priority 2013, dated 2019).
